Experimental data published in patent US7326721B2 (Hypnion, Inc., priority 2003, dated 2008).
“And” between values parts separate entries of the source, which are not always exact repeats. Equal values may be shown once.

Legend:
Angiotensin II, AT2 = Angiotensin II, AT2 (Homo sapiens, UniProt P50052); assay: Table 12 panel: Angiotensin II, AT2; conditions: 1.0E−6, average N=2, read-out: percentage inhibition of specific binding
Source text: (§1) The percentage inhibition (average; N=2) for these receptors is shown below in Table 12.
(§2) Values in Table 12 are expressed as percentage inhibition of specific binding, and these values represent the average of replicate tubes at each of the concentrations tested.

[1] = test system: Corticotropin Releasing Factor, Non-selective; assay: Table 12 panel: CRF; assay type: binding; conditions: 1.0E−6, average N=2
Source text: as §1, §2

[2] = test system: Adrenergic, Beta, Non-selective; assay: Table 12 panel: Adrenergic, Beta; assay type: binding; conditions: 1.0E−6, average N=2
Source text: as §1, §2

Esterase, Acetylcholine = Esterase, Acetylcholine (Homo sapiens, UniProt P22303); assay: Table 12 panel: Acetylcholine esterase; assay type: biochemical; conditions: 1.0E−6, average N=2
Sequence of Esterase, Acetylcholine (P22303 32-614): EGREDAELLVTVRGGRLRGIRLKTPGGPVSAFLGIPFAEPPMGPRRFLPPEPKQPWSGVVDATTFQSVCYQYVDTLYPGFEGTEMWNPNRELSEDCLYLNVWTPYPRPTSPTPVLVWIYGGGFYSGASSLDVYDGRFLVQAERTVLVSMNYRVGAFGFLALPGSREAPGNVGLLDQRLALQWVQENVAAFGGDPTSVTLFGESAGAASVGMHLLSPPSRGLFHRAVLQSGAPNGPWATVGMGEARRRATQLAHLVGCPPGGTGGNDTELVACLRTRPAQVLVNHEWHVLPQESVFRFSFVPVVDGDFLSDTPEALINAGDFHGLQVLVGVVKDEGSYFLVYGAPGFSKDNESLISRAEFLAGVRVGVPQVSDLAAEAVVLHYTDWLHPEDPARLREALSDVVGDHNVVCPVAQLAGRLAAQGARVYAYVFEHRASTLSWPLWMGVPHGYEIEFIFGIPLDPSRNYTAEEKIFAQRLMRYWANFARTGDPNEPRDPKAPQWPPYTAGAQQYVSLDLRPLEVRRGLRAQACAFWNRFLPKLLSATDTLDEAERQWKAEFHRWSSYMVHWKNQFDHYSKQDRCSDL
Source text: as §1, §2

hERG = hERG (Homo sapiens, UniProt Q12809); assay: Table 12 panel: hERG binding; design: expressed in transfected cells; conditions: human recombinant hERG potassium channel (binding assay), I[Kr] (hERG) (hr), 1.0E−6, average N=2, read-out: percentage inhibition of specific binding
Sequence of hERG (Q12809 whole entry): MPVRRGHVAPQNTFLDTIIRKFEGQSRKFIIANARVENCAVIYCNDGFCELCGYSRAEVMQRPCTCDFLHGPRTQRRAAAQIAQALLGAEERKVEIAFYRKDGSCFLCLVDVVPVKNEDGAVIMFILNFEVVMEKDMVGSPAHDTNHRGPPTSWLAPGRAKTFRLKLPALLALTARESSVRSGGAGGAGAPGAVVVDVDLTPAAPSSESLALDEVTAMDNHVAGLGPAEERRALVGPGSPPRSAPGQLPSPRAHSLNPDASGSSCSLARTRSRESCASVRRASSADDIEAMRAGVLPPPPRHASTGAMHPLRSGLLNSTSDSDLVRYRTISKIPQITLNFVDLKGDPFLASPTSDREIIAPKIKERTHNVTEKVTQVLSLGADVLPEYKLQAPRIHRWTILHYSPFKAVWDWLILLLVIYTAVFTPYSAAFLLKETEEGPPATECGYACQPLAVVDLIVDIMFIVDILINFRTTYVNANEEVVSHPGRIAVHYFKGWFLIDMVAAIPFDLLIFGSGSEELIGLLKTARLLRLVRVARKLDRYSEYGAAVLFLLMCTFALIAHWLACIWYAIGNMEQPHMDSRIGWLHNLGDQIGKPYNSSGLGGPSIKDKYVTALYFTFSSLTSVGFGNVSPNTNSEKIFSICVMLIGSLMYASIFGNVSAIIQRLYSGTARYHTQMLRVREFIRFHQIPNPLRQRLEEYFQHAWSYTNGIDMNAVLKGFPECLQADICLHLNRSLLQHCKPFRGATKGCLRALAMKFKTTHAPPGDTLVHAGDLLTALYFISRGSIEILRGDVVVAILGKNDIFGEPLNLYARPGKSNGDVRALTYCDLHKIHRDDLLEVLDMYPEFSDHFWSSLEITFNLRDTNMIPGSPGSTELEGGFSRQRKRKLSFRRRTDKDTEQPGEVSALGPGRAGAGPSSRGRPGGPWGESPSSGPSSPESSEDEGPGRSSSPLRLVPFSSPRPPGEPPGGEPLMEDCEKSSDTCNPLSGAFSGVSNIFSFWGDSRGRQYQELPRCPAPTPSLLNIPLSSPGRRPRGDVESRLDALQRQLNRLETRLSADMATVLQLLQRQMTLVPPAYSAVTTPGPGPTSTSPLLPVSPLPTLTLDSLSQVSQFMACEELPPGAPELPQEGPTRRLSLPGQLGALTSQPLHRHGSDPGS
Source text: as §1, §2

Sodium, Site 2 = assay: Table 12 panel: Sodium, Site 2; assay type: binding; conditions: 1.0E−6, average N=2
Source text: as §1, §2

[3] = test system: Muscarinic, Non-selective, Central; assay: Table 12 panel: Muscarinic, Central; assay type: binding; conditions: 1.0E−6, average N=2
Source text: as §1, §2

Melatonin, Non-selective = assay: Table 12 panel: Melatonin; assay type: binding; conditions: 1.0E−6, average N=2
Source text: as §1, §2

Leukotriene, LTD4 = Leukotriene, LTD4 (Homo sapiens, UniProt Q9Y271); assay: Table 12 panel: Leukotriene, LTD4; conditions: 1.0E−6, average N=2, read-out: percentage inhibition of specific binding
Sequence of Leukotriene, LTD4 (Q9Y271 whole entry): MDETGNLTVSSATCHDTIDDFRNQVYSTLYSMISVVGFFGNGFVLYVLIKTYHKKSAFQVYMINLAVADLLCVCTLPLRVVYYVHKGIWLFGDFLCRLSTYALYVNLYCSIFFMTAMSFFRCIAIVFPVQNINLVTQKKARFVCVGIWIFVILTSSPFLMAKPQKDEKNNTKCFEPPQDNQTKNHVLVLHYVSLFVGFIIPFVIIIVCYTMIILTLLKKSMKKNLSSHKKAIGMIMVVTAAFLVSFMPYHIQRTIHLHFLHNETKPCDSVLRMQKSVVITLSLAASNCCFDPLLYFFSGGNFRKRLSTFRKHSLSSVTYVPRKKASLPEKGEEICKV
Source text: as §1, §2

Glutamate, Kainate Site = assay: Table 12 panel: Glutamate, Kainate; assay type: binding; conditions: 1.0E−6, average N=2
Source text: as §1, §2

[4] = target: Oxidase, MAO-A, Peripheral (Homo sapiens, UniProt P21397); assay: Table 12 panel: MAO-A; assay type: biochemical; conditions: 1.0E−6, average N=2
Sequence of Oxidase, MAO-A, Peripheral (P21397 whole entry): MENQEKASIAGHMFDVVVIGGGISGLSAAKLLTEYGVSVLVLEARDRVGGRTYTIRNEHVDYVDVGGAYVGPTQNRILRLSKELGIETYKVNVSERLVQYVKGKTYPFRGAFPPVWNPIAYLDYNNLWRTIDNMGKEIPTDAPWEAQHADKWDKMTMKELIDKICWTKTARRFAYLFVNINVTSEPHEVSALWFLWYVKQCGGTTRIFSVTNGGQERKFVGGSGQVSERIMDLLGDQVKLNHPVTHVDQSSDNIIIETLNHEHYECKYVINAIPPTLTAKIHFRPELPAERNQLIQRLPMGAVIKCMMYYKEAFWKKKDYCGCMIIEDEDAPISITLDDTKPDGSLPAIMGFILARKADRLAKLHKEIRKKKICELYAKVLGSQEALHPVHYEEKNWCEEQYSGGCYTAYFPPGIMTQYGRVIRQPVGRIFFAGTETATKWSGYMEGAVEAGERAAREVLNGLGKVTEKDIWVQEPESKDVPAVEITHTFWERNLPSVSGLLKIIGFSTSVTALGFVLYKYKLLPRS
Source text: as §1, §2

Angiotensin II, AT1 (h) = Angiotensin II, AT1 (h) (Homo sapiens, UniProt P30556); assay: Table 12 panel: Angiotensin II, AT1; conditions: 1.0E−6, average N=2, read-out: percentage inhibition of specific binding
Sequence of Angiotensin II, AT1 (h) (P30556 whole entry): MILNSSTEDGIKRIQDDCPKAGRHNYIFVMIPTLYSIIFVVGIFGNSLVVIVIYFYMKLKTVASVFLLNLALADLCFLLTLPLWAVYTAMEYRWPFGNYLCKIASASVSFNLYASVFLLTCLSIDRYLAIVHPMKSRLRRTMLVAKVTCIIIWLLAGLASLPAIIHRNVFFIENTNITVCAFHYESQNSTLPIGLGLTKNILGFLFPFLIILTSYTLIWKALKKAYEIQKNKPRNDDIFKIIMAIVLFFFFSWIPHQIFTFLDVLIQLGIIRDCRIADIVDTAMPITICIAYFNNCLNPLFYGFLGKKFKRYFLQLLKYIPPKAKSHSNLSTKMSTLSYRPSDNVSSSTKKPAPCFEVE
Source text: as §1, §2

Neurokinin, NK1 = Neurokinin, NK1 (Homo sapiens, UniProt P25103); assay: Table 12 panel: NK1; conditions: 1.0E−6, average N=2, read-out: percentage inhibition of specific binding
Sequence of Neurokinin, NK1 (P25103 whole entry): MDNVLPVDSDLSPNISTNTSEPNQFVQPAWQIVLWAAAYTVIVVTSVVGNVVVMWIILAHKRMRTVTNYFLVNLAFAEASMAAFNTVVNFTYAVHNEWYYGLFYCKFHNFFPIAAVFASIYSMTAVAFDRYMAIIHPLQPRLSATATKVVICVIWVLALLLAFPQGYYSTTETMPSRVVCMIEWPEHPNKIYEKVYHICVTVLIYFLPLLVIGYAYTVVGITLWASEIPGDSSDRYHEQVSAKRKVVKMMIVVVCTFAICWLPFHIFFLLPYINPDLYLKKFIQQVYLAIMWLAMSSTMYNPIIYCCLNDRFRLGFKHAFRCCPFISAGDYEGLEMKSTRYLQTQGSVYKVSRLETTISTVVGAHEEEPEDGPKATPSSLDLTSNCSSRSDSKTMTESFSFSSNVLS
Source text: as §1, §2

Sigma, Non-selective = assay: Table 12 panel: Sigma; assay type: binding; conditions: 1.0E−6, average N=2
Source text: as §1, §2

Serotonin, Non-selective = assay: Table 12 panel: Serotonin, Non-selective; assay type: binding; conditions: 1.0E−6, average N=2
Source text: as §1, §2

CYP 2C19 = target: T1, CYP 2C19 (Homo sapiens, UniProt P33261); assay: Cytochrome P450 inhibition: CYP 2C19; assay type: in vitro ADME; conditions: human microsomal preparation
T1 construct: in a commercially available human microsomal preparation; purchased; host or cells: human microsomal preparation
T1 sequence (P33261 whole entry): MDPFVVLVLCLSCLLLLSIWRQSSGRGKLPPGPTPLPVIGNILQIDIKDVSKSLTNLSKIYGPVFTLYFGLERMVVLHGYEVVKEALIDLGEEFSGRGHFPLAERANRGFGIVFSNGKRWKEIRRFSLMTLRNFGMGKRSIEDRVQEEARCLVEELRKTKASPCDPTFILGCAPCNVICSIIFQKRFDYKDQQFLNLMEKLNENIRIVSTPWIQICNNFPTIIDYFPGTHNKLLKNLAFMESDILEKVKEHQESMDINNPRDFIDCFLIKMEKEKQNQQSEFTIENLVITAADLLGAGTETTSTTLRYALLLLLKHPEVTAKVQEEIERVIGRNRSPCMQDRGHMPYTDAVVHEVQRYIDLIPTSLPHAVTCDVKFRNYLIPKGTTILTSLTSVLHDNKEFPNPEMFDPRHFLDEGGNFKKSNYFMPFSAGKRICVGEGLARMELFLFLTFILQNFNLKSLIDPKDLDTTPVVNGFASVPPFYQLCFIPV
Method: (§3) Cytochrome P450 inhibition was studied with HY2901 in vitro. […] In addition, the in vitro rate of metabolism in rat, dog, monkey, and human hepatocyte cultures was determined for HY2901.

rat hepatocytes = assay: In vitro rate of metabolism in rat hepatocyte cultures; assay type: in vitro ADME
Method: as §3

Crl: CD(SD)IGS BR rats = assay: Acute rat study (toxicity and MTD, oral gavage, 5 days); assay type: in vivo
Method: The purpose of this study was to evaluate the toxicity and maximum tolerated dose (MTD) of the test articles when given via oral gavage to rats. Male Crl: CD®(SD)IGS BR rats (3/group) were assigned to 5 groups. At initiation of dosing, animals were approximately 7 weeks old with body weights ranging from 172 to 206 g. Each group received either 50, 100, 150, 200, or 250 mg/kg of HY2901 once daily for 5 days. All surviving animals were sacrificed on Day 6. Assessment of toxicity was based on mortality, clinical observations, and body weight data.

Wistar rats = assay: Acetic acid-induced abdominal spasm test in the rat; assay type: in vivo
Method: The objective of this example was to determine the analgesic activity of HY-2901 (Also referred to herein as Compound 49a) following oral administration. Analgesic activity was assessed abdominal spasm test in the rat and mouse. Analgesic activity is also assessed using the tail clip test in the mouse, tail flick test in the rat, Randall-Selitto test in the rat and comparisons are made with a vehicle control group. Reference compounds ASA (acetylsalicylic acid) and morphine are also included for comparison.
The tail clip and tail flick test provide useful information about the central analgesic activity of the test article. The Randall-Selitto test provides information on the compound's ability to modify a hyperalgesic state and the abdominal spasm test provides information on the peripheral analgesic activity of the test article. The test article is administered by oral gavage, this being the intended clinical route of administration. The dose levels employed are expected to encompass the efficacy dose and provide an adequate safety margin.
All formulations were prepared on each day of dosing. The test article (HY-2901) was formulated in 0.25% (w/v) MC at the highest concentration required. Lower doses were obtained by serial dilution of the highest concentration using 0.25% (w/v) MC. The reference compound, acetylsalicylic acid, was formulated in 0.25% (w/v) MC at the required concentrations. Brewer's yeast was formulated in water for injection at the required concentration. Acetic acid was diluted with water for injection to provide the required concentration for administration.
An adequate number of male Crl:CD-I(ICR)BR mice and Wistar rats were obtained from Charles River (UK) Ltd., Margate, Kent. The mice were approximately 4 weeks of age and weigh between 18 and 22 g on arrival. The rats were approximately 5 weeks of age and weigh between 150 and 170 g on arrival. The age and weight of the animals at the start of the study was documented in the raw data and final report,
Each animal received a single administration of vehicle, test article or reference compound by oral gavage, using a constant dose volume […]. Individual dose volumes were based on individual body weights obtained on the day of dosing.
Forty-five minutes following oral administration each animal received a 1 mL intraperitoneal injection of 1% acetic acid. Animals were immediately placed into individual observation chambers and the number of abdominal spasms elicited over the subsequent 25-minute period was recorded.

CYP 3A = assay: Cytochrome P450 inhibition: CYP 3A; assay type: in vitro ADME; conditions: human microsomal preparation
Method: as §3

[5] = Protein binding in human plasma; assay type: in vitro ADME
Method: HY2901 was administered to rats, dogs, and cynomolgus monkeys at a dose of 3 mg/kg orally and intravenously. Plasma samples were collected from all species for pharmacokinetic analysis. […] HY2901 is 75% protein bound in rat plasma and 60% protein bound in human plasma.

[6] = Brain levels of parent drug after oral administration; conditions: rat, 3 mg/kg
[7] = 50 to 250 mg/kg once daily for 5 days

Sequence of Angiotensin II, AT2 (P50052 whole entry): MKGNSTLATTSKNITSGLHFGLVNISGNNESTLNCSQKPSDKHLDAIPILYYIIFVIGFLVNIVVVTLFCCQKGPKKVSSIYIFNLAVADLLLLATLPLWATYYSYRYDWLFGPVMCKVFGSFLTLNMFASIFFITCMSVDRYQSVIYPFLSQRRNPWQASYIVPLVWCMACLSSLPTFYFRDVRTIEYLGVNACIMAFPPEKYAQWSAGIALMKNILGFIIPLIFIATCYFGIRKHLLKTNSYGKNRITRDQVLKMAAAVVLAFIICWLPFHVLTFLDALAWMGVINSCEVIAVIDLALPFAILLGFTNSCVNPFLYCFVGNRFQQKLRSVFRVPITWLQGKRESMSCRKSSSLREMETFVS

CC(CC(=O)O)N1CCC(=C2c3ccc(F)cc3COc3ccccc32)CC1 (centres unmarked) [Compound 37]
inhibition at 1 µM (Angiotensin II, AT2): 1.51%
percentage inhibition of specific binding [1]: 4.31%
percentage inhibition of specific binding [2]: 6.97%
percentage inhibition (Esterase, Acetylcholine): 2.54%
inhibition at 1 µM (hERG): -5.23%
percentage inhibition of specific binding (Sodium, Site 2): −4.12%
percentage inhibition of specific binding [3]: 12.84%
percentage inhibition of specific binding (Melatonin, Non-selective): 11.29%
inhibition at 1 µM (Leukotriene, LTD4): -20.1%
percentage inhibition of specific binding (Glutamate, Kainate Site): 1.51%
percentage inhibition [4]: −17.23% ^
inhibition at 1 µM (Angiotensin II, AT1 (h)): 12%
inhibition at 1 µM (Neurokinin, NK1): 10.3%
percentage inhibition of specific binding (Sigma, Non-selective): 13.27%
percentage inhibition of specific binding (Serotonin, Non-selective): 21.45%

CC(C)(CN1CCC(=C2c3ccc(F)cc3COc3ccccc32)CC1)C(=O)O [Compound 49a]
inhibition of CYP 2C19 activity (CYP 2C19): did not inhibit
in vitro metabolism (rat hepatocytes): extensively metabolized
ataxia (Crl: CD(SD)IGS BR rats; [7]): dose-response relationship was observed in the incidence and duration of ataxia
hypoactivity / apparent sleep (Crl: CD(SD)IGS BR rats; [7]): Hypoactivity was observed in all rats
Day 6 body weights (Crl: CD(SD)IGS BR rats; two 250 mg/kg rats, relative to other rats): slightly decreased
Group mean (=sd) number pf abdominal spasms recorded in a 25-minute period (Wistar rats; oral 3 mg/kg): 31 ± 9.0
Number of abdominal spasms recorded in a 25-minute period, individual animal data (Wistar rats; oral 3 mg/kg, listed as HY-2901, 3 mg/kg): 42 and 17 and 26 and 29 and 31 and 39
Group mean (=sd) number pf abdominal spasms recorded in a 25-minute period (Wistar rats; oral 10 mg/kg): 25 ± 16.4
Number of abdominal spasms recorded in a 25-minute period, individual animal data (Wistar rats; oral 10 mg/kg, listed as HY-2901, 10 mg/kg): 57 and 23 and 20 and 24 and 19 and 9
Group mean (=sd) number pf abdominal spasms recorded in a 25-minute period (Wistar rats; oral 30 mg/kg): 17 ± 13.8
Number of abdominal spasms recorded in a 25-minute period, individual animal data (Wistar rats; oral 30 mg/kg, listed as HY-2901, 30 mg/kg): 37 and 20 and 23 and 1 (2×) and 18
inhibition of CYP 3A activity (CYP 3A): did not inhibit
protein bound [5]: 60%
Kp [6]: 1
